We go through 2 compounds from patent EP4467141A1, “PYRAZOLO-QUINOLINES AS SELECTIVE INHIBITORS OF GENOTOXIC STRESS-INDUCED IKK/NF- KB PATHWAYS FOR CANCER THERAPY” (Max-Delbrück-Centrum für Molekulare Medizin in der …, priority 2023, dated 2024).

Holding throughout (test): Kinase panel study
Common to all, as to assay type: biochemical
Common to all, as to details: read-out: Percentage of inhibition; for inhibition at 1 µM: 1000nM; for inhibition at 10 µM: 10000nM

One assay has as its target T1, CDK1/cyclin B (Homo sapiens, UniProt P06493).
T1 construct: purchased Thermo Fisher Scientific
The procedure, abridged: (§1)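 Inhibition was measured in an outsourced in vitro kinase panel using the ZLyte or Adapta format under the provider's standard procedures. Values are percent inhibition at 10 µM or 1 µM compound, and IC50s were also obtained.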

Assay [1] addresses T2, EGFR (ErbB1) T790M C797S L858R (Homo sapiens, UniProt P00533, C797S/L858R/T790M).
T2 construct: purchased Thermo Fisher Scientific
In a few lines:
as §1

The next assay deals with T3, ERBB2 (HER2) (Homo sapiens, UniProt P04626).
T3 construct: purchased Thermo Fisher Scientific
The procedure, abridged: as §1

The next assay concerns the target T4, PRKG1 (Homo sapiens, UniProt Q13976).
T4 construct: purchased Thermo Fisher Scientific
T4 sequence (Q13976 1-671): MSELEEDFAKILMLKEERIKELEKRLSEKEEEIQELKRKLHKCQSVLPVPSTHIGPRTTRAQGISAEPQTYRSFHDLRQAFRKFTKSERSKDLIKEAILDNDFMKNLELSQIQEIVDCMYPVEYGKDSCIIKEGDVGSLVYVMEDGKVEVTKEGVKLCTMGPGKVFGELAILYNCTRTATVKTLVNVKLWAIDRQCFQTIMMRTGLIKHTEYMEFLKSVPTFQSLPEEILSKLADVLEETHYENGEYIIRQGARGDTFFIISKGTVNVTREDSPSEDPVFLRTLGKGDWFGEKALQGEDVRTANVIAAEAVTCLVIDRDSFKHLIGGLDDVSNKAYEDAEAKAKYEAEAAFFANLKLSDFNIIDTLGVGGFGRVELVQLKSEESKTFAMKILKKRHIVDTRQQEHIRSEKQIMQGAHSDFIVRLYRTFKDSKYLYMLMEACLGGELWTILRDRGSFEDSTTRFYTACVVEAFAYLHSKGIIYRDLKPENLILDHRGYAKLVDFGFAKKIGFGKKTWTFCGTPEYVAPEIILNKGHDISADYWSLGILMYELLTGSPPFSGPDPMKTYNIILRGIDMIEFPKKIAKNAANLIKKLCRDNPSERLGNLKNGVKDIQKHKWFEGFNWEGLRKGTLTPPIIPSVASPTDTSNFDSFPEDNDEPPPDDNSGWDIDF
In a few lines: as §1

For a further assay, the target named is T5, FER (Homo sapiens, UniProt P16591).
T5 construct: purchased Thermo Fisher Scientific
The procedure, abridged: as §1

Another assay has as its target T6, PLK2 (Homo sapiens, UniProt Q9NYY3).
T6 construct: purchased Thermo Fisher Scientific
In a few lines:
as §1

The next assay addresses T7, PRKCG (PKC gamma) (Homo sapiens, UniProt P05129).
T7 construct: purchased Thermo Fisher Scientific
The procedure, abridged: as §1

The next assay has as its target T8, CHUK (IKK alpha) (Homo sapiens, UniProt O15111).
T8 construct: purchased Thermo Fisher Scientific
T8 sequence (O15111 1-745): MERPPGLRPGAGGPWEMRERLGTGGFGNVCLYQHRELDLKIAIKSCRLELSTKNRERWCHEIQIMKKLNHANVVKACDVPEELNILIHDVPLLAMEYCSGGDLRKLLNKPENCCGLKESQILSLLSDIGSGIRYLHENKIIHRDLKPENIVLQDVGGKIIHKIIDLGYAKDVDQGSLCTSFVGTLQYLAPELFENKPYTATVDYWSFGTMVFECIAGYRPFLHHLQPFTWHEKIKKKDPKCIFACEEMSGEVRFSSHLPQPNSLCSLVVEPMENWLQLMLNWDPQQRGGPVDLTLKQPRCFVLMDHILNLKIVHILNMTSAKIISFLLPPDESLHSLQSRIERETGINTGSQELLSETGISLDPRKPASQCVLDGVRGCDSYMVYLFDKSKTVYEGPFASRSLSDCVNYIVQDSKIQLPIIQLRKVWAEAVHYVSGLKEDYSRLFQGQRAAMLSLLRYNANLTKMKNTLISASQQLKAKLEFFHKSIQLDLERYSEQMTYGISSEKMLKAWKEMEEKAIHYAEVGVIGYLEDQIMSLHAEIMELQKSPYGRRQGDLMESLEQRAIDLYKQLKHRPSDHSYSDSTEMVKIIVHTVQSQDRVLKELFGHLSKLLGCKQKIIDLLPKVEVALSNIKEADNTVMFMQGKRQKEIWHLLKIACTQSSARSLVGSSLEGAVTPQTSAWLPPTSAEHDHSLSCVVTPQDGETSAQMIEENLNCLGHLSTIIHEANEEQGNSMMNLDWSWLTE
In a few lines: as §1

In another assay the target is T9, CDK5/p35 (Homo sapiens, UniProt Q00535).
T9 construct: purchased Thermo Fisher Scientific
The procedure, abridged:
as §1

For another assay, the target named is T10, LRRK2 FL (Homo sapiens, UniProt Q5S007).
T10 construct: LRRK2 FL; purchased Thermo Fisher Scientific
The procedure, abridged: as §1

T5 sequence (P16591 whole entry): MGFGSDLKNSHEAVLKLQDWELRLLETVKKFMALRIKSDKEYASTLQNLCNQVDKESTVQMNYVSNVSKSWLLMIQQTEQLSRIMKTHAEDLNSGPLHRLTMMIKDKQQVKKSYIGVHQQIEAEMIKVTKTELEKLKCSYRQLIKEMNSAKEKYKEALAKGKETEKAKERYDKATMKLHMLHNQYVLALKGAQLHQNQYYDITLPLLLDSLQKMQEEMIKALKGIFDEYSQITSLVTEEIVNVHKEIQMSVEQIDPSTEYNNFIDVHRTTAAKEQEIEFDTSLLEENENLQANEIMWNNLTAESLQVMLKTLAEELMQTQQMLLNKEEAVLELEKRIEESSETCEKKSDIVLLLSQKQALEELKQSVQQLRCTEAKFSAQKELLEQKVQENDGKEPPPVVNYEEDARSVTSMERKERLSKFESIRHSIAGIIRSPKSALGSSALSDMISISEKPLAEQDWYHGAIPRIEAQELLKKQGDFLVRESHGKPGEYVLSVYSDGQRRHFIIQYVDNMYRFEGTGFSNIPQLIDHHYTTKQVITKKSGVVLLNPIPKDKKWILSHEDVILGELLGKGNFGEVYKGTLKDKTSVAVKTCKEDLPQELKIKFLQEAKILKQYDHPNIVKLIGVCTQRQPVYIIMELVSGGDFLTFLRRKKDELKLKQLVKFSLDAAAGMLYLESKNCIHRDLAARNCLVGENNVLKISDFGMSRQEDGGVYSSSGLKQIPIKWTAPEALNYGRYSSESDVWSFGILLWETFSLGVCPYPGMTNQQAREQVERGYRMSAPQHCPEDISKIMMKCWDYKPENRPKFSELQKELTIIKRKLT
T6 sequence (Q9NYY3 whole entry): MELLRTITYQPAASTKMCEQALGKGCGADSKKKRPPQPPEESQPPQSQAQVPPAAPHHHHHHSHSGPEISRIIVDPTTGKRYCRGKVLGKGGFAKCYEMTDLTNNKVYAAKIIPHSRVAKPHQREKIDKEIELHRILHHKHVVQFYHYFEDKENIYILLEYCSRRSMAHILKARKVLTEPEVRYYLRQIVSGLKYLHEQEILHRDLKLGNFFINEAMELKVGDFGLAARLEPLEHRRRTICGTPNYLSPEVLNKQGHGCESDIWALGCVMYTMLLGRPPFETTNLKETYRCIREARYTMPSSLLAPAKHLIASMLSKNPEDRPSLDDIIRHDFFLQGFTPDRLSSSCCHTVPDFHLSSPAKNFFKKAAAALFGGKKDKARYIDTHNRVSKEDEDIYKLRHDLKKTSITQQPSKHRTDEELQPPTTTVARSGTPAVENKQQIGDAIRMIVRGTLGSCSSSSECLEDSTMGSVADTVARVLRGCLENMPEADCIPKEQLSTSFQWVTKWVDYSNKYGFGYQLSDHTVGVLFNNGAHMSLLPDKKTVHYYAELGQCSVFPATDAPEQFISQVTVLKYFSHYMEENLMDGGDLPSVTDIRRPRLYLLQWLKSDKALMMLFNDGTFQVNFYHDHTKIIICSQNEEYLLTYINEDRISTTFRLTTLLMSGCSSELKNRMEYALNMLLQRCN
T2 sequence (P00533 25-1210 T790M/C797S/L858R): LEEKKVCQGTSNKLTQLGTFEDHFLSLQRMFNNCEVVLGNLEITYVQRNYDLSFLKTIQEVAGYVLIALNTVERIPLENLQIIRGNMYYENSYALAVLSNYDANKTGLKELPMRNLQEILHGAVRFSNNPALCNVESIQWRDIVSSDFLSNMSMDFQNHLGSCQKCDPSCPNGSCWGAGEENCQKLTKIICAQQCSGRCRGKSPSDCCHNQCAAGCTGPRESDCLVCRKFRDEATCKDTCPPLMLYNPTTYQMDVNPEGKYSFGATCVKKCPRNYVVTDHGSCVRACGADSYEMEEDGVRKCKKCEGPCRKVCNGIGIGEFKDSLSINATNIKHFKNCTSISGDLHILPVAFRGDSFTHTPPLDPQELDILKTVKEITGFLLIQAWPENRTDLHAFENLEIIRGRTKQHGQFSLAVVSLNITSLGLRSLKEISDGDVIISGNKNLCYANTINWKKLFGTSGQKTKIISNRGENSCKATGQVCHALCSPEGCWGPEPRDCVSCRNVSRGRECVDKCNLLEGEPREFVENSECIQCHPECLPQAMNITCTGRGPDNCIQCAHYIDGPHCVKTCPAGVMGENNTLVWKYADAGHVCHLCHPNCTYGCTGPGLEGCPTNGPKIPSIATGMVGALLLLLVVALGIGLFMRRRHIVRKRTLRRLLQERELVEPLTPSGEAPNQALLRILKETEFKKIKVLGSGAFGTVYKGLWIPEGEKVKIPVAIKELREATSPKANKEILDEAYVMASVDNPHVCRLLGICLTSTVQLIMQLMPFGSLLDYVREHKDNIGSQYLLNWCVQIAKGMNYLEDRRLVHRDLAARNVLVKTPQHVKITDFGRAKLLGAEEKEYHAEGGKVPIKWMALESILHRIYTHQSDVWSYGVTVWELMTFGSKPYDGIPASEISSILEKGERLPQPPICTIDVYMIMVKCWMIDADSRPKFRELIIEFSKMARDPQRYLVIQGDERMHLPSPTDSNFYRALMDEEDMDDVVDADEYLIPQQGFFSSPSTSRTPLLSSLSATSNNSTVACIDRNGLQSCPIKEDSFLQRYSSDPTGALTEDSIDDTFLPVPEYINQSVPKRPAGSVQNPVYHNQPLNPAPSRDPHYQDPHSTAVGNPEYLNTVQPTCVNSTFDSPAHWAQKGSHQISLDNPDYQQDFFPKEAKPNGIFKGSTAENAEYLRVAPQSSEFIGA
T3 sequence (P04626 23-1255): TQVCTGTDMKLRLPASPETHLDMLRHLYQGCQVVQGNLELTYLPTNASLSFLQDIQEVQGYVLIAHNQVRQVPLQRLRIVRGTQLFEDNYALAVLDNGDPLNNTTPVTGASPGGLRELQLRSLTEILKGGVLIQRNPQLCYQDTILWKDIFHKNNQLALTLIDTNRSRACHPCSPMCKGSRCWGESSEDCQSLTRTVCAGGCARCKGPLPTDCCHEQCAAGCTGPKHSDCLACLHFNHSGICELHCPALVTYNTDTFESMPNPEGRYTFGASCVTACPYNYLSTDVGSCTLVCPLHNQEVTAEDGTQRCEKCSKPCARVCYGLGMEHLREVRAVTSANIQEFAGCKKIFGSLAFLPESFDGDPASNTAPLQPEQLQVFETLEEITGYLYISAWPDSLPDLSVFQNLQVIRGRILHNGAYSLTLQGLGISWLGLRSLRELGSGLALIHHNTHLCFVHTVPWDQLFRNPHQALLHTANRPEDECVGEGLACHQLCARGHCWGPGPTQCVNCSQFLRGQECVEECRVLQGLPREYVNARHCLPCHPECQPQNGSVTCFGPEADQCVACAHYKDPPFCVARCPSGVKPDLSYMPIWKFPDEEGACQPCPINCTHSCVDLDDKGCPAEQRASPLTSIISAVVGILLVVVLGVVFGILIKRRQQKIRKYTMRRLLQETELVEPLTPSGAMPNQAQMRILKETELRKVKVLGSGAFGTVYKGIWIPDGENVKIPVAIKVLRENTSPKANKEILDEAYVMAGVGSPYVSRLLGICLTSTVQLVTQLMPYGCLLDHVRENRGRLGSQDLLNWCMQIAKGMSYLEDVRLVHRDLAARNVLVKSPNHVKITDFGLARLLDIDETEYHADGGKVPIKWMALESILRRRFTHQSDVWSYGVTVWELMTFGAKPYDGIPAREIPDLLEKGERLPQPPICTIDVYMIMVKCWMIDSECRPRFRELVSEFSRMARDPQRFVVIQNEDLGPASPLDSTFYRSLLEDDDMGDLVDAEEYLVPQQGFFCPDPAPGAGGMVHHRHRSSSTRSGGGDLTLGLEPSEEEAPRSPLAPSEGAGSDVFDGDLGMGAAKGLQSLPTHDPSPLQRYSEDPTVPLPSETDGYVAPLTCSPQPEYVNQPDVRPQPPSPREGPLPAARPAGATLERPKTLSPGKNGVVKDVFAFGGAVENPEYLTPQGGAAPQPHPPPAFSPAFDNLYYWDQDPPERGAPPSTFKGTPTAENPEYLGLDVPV

For orientation: inhibition means the change of the read-out against control, counted positive when it falls. As for `COc1ccc2c(c1OC)c(=O)n1c3ccc(O)cc3c3ccnc2c31` [MW01, 5-Hydroxy-10,11-dimethoxy-9H-benzo[c]indolo[3,2,1-ij][1,5]naphthyridin-9-one], the inhibition at 1 µM at CDK1/cyclin B is 20%; in assay [1], 2%; at ERBB2 (HER2), 2%; on PRKG1, 27%; on FER, 11%; on PLK2, -1%. Moreover, the inhibition at 1 µM was determined as 13% on PRKCG (PKC gamma), 19% on CHUK (IKK alpha), 17% on CDK5/p35 and 85% at LRRK2 FL. Moreover, the inhibition at 10 µM at CDK1/cyclin B was 46%; in assay [1], 12%; at ERBB2 (HER2) it was 4%; on PRKG1, 59%; at FER, 25%; at PLK2, -2%. For the same compound, the inhibition at 10 µM at PRKCG (PKC gamma) is 16%; at CHUK (IKK alpha), 21%; at CDK5/p35 it was 14%; at LRRK2 FL it was 90%.
For `COc1ccc2cc3c(N)nn(C(=O)c4cccc(N(C)C)c4)c3nc2c1` [MW05, (3-Amino-7-methoxypyrazolo[3,4-b]quinolin-1-yl)-[3-(dimethylamino)phenyl]methanone], the inhibition at 1 µM is 19% at CDK1/cyclin B; 1% in assay [1]; -5% on ERBB2 (HER2); 5% at PRKG1; 7% on FER; 3% at PLK2. The inhibition at 1 µM at PRKCG (PKC gamma) is 11%; on CHUK (IKK alpha), 7%; on CDK5/p35, 5%; on LRRK2 FL, -6%. The inhibition at 10 µM was 57% at CDK1/cyclin B; 2% in assay [1]; -19% on ERBB2 (HER2); -11% on PRKG1; 0% at FER; -2% on PLK2. In addition, the inhibition at 10 µM is -3% at PRKCG (PKC gamma), 18% on CHUK (IKK alpha), 7% on CDK5/p35 and 6% on LRRK2 FL.
